Laboratory results published in US10000451B2, “MAP4K4 (HGK) inhibitors” (SRI INTERNATIONAL, priority 2015, dated 2018).
pIC50: −log10 of the molar value. Each block holds one molecule with its values, some of them ahead of it.

Assays:
[1] = molecular target: MAP4K4 (Homo sapiens, UniProt O95819); test: MAP4K4 kinase assay (in-house); assay type: biochemical
Description: Signaling pathways mediating anticancer activity. […] We established the MAP4K4 kinase assay in-house and confirmed that the compounds are indeed potent MAP4K4 inhibitors.

[2] = test system: BT549; test: Breast cancer cell line growth inhibition; assay type: cell-based; settings: Homo sapiens, BT-549; BT549, triple negative; read-out: IC50 against breast cancer cell lines
Description: (§1) Generally, their potency is positively correlated with MAP4K4 expression in cancer cell lines.

[3] = test system: HS578T; test: Breast cancer cell line growth inhibition; assay type: cell-based; settings: Homo sapiens, Hs-578T, triple negative, read-out: IC50 against breast cancer cell lines
Description: as §1

[4] = test system: MCF-7; test: Breast cancer cell line growth inhibition; assay type: cell-based; settings: Homo sapiens, MCF7; MCF-7, ER (+); read-out: IC50 against breast cancer cell lines
Description: as §1

[5] = test system: MDA-MB-231; test: Breast cancer cell line growth inhibition; assay type: cell-based; settings: Homo sapiens; MDA-MB-231, triple negative; read-out: IC50 against breast cancer cell lines
Description: as §1

[6] = test system: T47D; test: Breast cancer cell line growth inhibition; assay type: cell-based; settings: Homo sapiens, ER (+), read-out: IC50 against breast cancer cell lines
Description: as §1

[7] = test system: A498; test: Activity against cancer cell lines; assay type: cell-based; settings: Homo sapiens
Description: (§2) Exemplary data is shown below.

[8] = test system: ACHN; test: Activity against cancer cell lines; assay type: cell-based; settings: Homo sapiens
Description: as §2

[9] = test system: ADRRES; test: Activity against cancer cell lines; assay type: cell-based
Description: as §2

[10] = test system: CAKI1; test: Activity against cancer cell lines; assay type: cell-based; settings: Homo sapiens, CAKI-1
Description: as §2

[11] = test system: HCT15; test: Activity against cancer cell lines; assay type: cell-based; settings: Homo sapiens, HCT-15
Description: as §2

[12] = test system: HL60; test: Activity against cancer cell lines; assay type: cell-based
Description: as §2

[13] = test system: LOXIMVI; test: Activity against cancer cell lines; assay type: cell-based; settings: Homo sapiens, LOX IMVI
Description: as §2

[14] = test system: M14; test: Activity against cancer cell lines; assay type: cell-based; settings: Homo sapiens
Description: as §2

[15] = test system: MCF7; test: Activity against cancer cell lines; assay type: cell-based; settings: Homo sapiens
Description: as §2

[16] = test system: MDAMB435; test: Activity against cancer cell lines; assay type: cell-based; settings: Homo sapiens, MDA-MB-435
Description: as §2

[17] = test system: MOLT4; test: Activity against cancer cell lines; assay type: cell-based; settings: Homo sapiens, MOLT-4
Description: as §2

[18] = test system: NCIH522; test: Activity against cancer cell lines; assay type: cell-based; settings: Homo sapiens, NCI-H522
Description: as §2

[19] = test system: OVCAR4; test: Activity against cancer cell lines; assay type: cell-based
Description: as §2

[20] = test system: RXF393; test: Activity against cancer cell lines; assay type: cell-based; settings: Homo sapiens, RXF 393
Description: as §2

[21] = test system: SF295; test: Activity against cancer cell lines; assay type: cell-based; settings: Homo sapiens, SF-295
Description: as §2

[22] = test system: SF539; test: Activity against cancer cell lines; assay type: cell-based; settings: Homo sapiens, SF-539
Description: as §2

[23] = test system: SKMEL2; test: Activity against cancer cell lines; assay type: cell-based; settings: Homo sapiens, SK-MEL-2
Description: as §2

[24] = test system: SKMEL5; test: Activity against cancer cell lines; assay type: cell-based; settings: Homo sapiens, SK-MEL-5
Description: as §2

[25] = test system: SNB75; test: Activity against cancer cell lines; assay type: cell-based; settings: Homo sapiens, SNB-75, SNB75
Description: as §2

[26] = test system: UO31; test: Activity against cancer cell lines; assay type: cell-based; settings: Homo sapiens, UO-31
Description: as §2

[27] = test system: DU-145; test: Prostate cancer cell proliferation assay; assay type: cell-based; settings: Homo sapiens; DU-145, 72 hours; read-out: IC50 against prostate cancer cell lines
Description: (§3) The dose-response curves of cell growth inhibition were consistent.
(§4) Cell proliferation assays.

[28] = test system: LNCaP; test: Prostate cancer cell proliferation assay; assay type: cell-based; settings: Homo sapiens, 72 hours, read-out: IC50 against prostate cancer cell lines
Description: as §3, §4

[29] = test system: PC-3; test: Prostate cancer cell proliferation assay; assay type: cell-based; settings: Homo sapiens; PC-3, 72 hours; read-out: IC50 against prostate cancer cell lines
Description: as §3, §4

[30] = test system: PC-3 prostate cancer xenografts; test: Antitumor activity in PC-3 xenografts; assay type: in vivo; settings: nude mice
Protocol: In vivo efficacy studies: antitumor and antimetastatic effects against androgen-insensitive prostate cancer. Antitumor activity was tested in nude mice bearing aggressive, androgen-independent PC-3 prostate cancer xenografts. Docetaxel, a standard treatment for metastatic prostate cancer, was included in the study as a positive control. Docetaxel was administered at its maximum tolerated dose (MTD) via intraperitoneal (IP) (Q3Dx2; Monday, Friday). Mice were orally treated with compound in 0.5% HPC with 4 different treatment regimens. The control group was treated with vehicle (0.5% HPC) only. Treatment was initiated when average tumor volume reached 100 mm^3 (10 mice per group).
The compounds show a significant dose-dependent growth inhibition of prostate tumor. Docetaxel at its MTD (7.5 mg/kg; Q3Dx2) produces only 10-15% growth inhibition. […] Treatment with representative compounds (12.5, 25 and 50 mg/kg/day) caused a significant dose-dependent growth reduction of PC-3 tumors.

Sequence of MAP4K4 (O95819 whole entry): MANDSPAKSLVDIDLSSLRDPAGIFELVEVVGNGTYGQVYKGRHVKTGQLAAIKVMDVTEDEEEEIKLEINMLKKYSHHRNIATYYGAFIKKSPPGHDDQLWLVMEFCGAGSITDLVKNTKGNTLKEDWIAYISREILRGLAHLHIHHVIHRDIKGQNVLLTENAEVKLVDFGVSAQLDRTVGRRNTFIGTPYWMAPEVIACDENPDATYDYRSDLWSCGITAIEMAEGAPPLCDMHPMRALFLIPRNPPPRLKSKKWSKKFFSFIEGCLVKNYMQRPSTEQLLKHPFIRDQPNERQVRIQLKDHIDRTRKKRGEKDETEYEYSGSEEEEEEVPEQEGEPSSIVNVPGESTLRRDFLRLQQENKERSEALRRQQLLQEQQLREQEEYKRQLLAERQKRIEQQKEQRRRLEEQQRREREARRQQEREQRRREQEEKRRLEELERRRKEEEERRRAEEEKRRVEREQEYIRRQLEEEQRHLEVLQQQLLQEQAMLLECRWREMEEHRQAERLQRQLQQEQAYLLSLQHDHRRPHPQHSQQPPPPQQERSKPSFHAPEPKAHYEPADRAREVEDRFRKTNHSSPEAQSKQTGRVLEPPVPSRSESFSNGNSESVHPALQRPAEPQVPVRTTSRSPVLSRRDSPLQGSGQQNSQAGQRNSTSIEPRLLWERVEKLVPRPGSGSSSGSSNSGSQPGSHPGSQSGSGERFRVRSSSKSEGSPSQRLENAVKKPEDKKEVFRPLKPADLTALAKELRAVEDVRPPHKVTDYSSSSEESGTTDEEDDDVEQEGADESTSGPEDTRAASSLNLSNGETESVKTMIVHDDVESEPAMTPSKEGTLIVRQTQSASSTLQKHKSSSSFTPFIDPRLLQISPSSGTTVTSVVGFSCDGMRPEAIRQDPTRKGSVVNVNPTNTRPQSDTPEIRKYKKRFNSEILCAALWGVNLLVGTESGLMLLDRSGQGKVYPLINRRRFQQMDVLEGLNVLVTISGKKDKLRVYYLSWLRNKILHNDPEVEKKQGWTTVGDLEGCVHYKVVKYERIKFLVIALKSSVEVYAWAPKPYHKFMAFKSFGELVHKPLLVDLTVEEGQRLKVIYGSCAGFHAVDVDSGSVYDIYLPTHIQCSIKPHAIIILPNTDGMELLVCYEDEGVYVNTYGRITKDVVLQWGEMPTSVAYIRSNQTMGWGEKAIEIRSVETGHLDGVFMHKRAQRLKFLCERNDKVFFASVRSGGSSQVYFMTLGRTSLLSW

SMILES: CC(=O)O[C@H]1C(=O)[C@@]2(C)[C@H]([C@H](OC(=O)c3ccccc3)[C@]3(O)C[C@H](OC(=O)[C@H](O)[C@@H](NC(=O)c4ccccc4)c4ccccc4)C(C)=C1C3(C)C)[C@]1(OC(C)=O)CO[C@@H]1C[C@@H]2O [Paclitaxel, reference compound]
pIC50 [2]: 6.82
pIC50 [3]: 6.83
pIC50 [4]: 6.81
pIC50 [5]: 6.82
pIC50 [6]: 6.82

SMILES: COc1ccc2[nH]c(C(=NO)c3ccc4[nH]ccc4c3)cc2c1 [Cmpd 37, (1H-indol-5-yl)(5-methoxy-1H-indol-2-yl)methanone oxime]
pIC50 [7]: 6.48
pIC50 [8]: 6.12
pIC50 [9]: 7.19
pIC50 [10]: 7.17
pIC50 [11]: 7.17
pIC50 ([12]; HL60): 7.11
pIC50 ([12]; Homo sapiens, HL-60, HL60): 7.09
pIC50 [13]: 6.36
pIC50 [14]: 6.96
pIC50 [15]: 7.07
pIC50 [16]: 7.18
pIC50 [17]: 6.92
pIC50 [18]: 7.00
pIC50 ([19]; Homo sapiens, OVCAR-4, OVCAR4): 6.82
pIC50 ([19]; OVCAR4): 6.96
pIC50 [20]: 6.85
pIC50 [21]: 6.60
pIC50 [22]: 6.77
pIC50 [23]: 6.24
pIC50 [24]: 6.68
pIC50 [25]: 6.96
pIC50 [26]: 6.16

SMILES: COc1ccc2[nH]c(C(=O)c3ccc4[nH]cc(Cl)c4c3)cc2c1 [Cmpd 9, (3-chloro-1H-indol-5-yl)(5-methoxy-1H-indol-2-yl)methanone]
pIC50 [1]: 5.77

SMILES: COc1ccc2[nH]c(C(=O)c3ccc4[nH]c(C(F)(F)F)nc4c3)cc2c1 [Cmpd 35, (5-methoxy-1H-indol-2-yl)(2-(trifluoromethyl)-1H-benzo[d]imidazol-5-yl)methanone]
pIC50 [1]: 5.12

SMILES: COc1cc2cc(C(=O)c3ccc4[nH]ccc4c3)[nH]c2cc1OC [Cmpd 15, (5,6-dimethoxy-1H-indol-2-yl)(1H-indol-5-yl)methanone]
pIC50 [2]: 7.77
pIC50 [3]: 7.80
pIC50 [4]: 6.91
pIC50 [5]: 7.68
pIC50 [6]: 7.52
pIC50 [27]: 7.46
pIC50 [28]: 7.68
pIC50 [29]: 7.77

SMILES: Cc1c[nH]c2ccc(C(=O)c3cc4cc(O)ccc4[nH]3)cc12 [Cmpd 12, (5-hydroxy-1H-indol-2-yl)(3-methyl-1H-indol-5-yl)methanone]
pIC50 [1]: 6.00

SMILES: COc1ccc2[nH]c(C(=O)c3ccc4[nH]nc(CN5CCOCC5)c4c3)cc2c1 [Cmpd 22, (5-methoxy-1H-indol-2-yl)(3-(morpholinomethyl)-1H-indazol-5-yl)methanone]
pIC50 [1]: 4.68

SMILES: COc1ccc2[nH]c(C(=O)c3ccc4[nH]ncc4c3)cc2c1Cl [Cmpd 24, (4-chloro-5-methoxy-1H-indol-2-yl)(1H-indazol-5-yl)methanone]
pIC50 [1]: 4.92

SMILES: CC(=O)O[C@@]12CO[C@@H]1C[C@H](O)[C@@]1(C)C(=O)[C@H](O)C3=C(C)[C@@H](OC(=O)[C@H](O)[C@@H](NC(=O)OC(C)(C)C)c4ccccc4)C[C@@](O)([C@@H](OC(=O)c4ccccc4)[C@H]21)C3(C)C [Docetaxel, reference compound]
pIC50 [27]: 7.14
pIC50 [28]: 7.51
pIC50 [29]: 7.02
tumor growth inhibition ([30]; PC-3 xenografts, MTD 7.5 mg/kg IP Q3Dx2): 10-15%
lethal toxicity ([30]; 7.5 mg/kg IP, after the 4th injection): mice died on Day 13 due to lethal toxicity

Further lines, results first:

pIC50 [1]: 6.19
SMILES: COc1cccc2cc(C(=O)c3ccc4[nH]nc(C)c4c3)[nH]c12 [Cmpd 28, (7-methoxy-1H-indol-2-yl)(3-methyl-1H-indazol-5-yl)methanone]

pIC50 [1]: 7.89
SMILES: COc1cc2cc(C(=O)c3ccc4[nH]nc(C)c4c3)[nH]c2cn1 [Cmpd 31, (5-methoxy-1H-pyrrolo[2,3-c]pyridin-2-yl)(3-methyl-1H-indazol-5-yl)methanone]

pIC50 [1]: 6.42
SMILES: COc1ccc2[nH]c(C(=O)c3ccc4[nH]cc(C)c4c3)cc2c1 [Cmpd 4, (5-methoxy-1H-indol-2-yl)(3-methyl-1H-indol-5-yl)methanone]

pIC50 [1]: 6.19
SMILES: COc1cccc2[nH]c(C(=O)c3ccc4[nH]nc(C)c4c3)cc12 [Cmpd 29, (4-methoxy-1H-indol-2-yl)(3-methyl-1H-indazol-5-yl)methanone]

pIC50 [1]: 7.34
SMILES: COc1ccc2[nH]c(C(=O)c3cnc4[nH]ccc4c3)cc2c1 [Cmpd 33, (5-methoxy-1H-indol-2-yl)(1H-pyrrolo[2,3-b]pyridin-5-yl)methanone]

pIC50 [1]: 8.05
SMILES: CCc1n[nH]c2ccc(C(=O)c3cc4cc(OC)ccc4[nH]3)cc12 [Cmpd 19, (3-ethyl-1H-indazol-5-yl)(5-methoxy-1H-indol-2-yl)methanone]

pIC50 [1]: 6.24
SMILES: COc1ccc2[nH]c(C(=O)c3ccc4[nH]nnc4c3)cc2c1 [Cmpd 36, (1H-benzo[d][1,2,3]triazol-5-yl)(5-methoxy-1H-indol-2-yl)methanone]

pIC50 [1]: 6.39
pIC50 [2]: 7.64
pIC50 [3]: 7.54
pIC50 [4]: 6.94
pIC50 [5]: 7.55
pIC50 [6]: 7.36
pIC50 [27]: 7.28
pIC50 [28]: 7.55
pIC50 [29]: 7.70
SMILES: COc1ccc2[nH]c(C(=O)c3ccc4[nH]ncc4c3)c(Cl)c2c1 [Cmpd 23, (3-chloro-5-methoxy-1H-indol-2-yl)(1H-indazol-5-yl)methanone]

pIC50 [1]: 6.52
SMILES: COc1ccc2[nH]c(C(=O)c3ccc4[nH]ccc4c3)c(C)c2c1 [Cmpd 5, (1H-indol-5-yl)(5-methoxy-3-methyl-1H-indol-2-yl)methanone]

pIC50 [1]: 6.59
pIC50 [2]: 8.05
pIC50 [3]: 8.00
pIC50 [4]: 7.28
pIC50 [5]: 8.00
pIC50 [6]: 7.77
pIC50 [27]: 7.85
pIC50 [28]: 8.05
pIC50 [29]: 8.22
SMILES: COc1ccc2[nH]c(C(=O)c3ccc4[nH]ncc4c3)cc2c1 [Cmpd 17, (1H-indazol-5-yl)(5-methoxy-1H-indol-2-yl)methanone]

pIC50 [1]: 6.51
SMILES: COc1ccc2[nH]c(C(=O)c3ccc4[nH]nc(Cl)c4c3)cc2c1 [Cmpd 20, (3-chloro-1H-indazol-5-yl)(5-methoxy-1H-indol-2-yl)methanone]

pIC50 [1]: 7.00
SMILES: COc1ccc2[nH]c(C(=O)c3ccc4[nH]nc(F)c4c3)cc2c1 [Cmpd 21, (3-fluoro-1H-indazol-5-yl)(5-methoxy-1H-indol-2-yl)methanone]
